Laboratory results taken from US12018049B2, “Compositions and related methods for controlling vector-borne diseases” (priority 2017, dated 2024).

Key:
Asaia = Asaia quantification by qPCR in mosquito midguts; assay type: in vivo, Anopheles coluzzii; conditions: blood meals with 0.1, 1 or 5 μg/ml azithromycin, three meals; vs control
[1] = tested on: Anopheles coluzzii mosquitoes; test: Mosquito survival after azithromycin blood meals; assay type: in vivo; conditions: blood meals with 0.1, 1 or 5 μg/ml azithromycin; vs negative control
E. coli DH5a = test: Antibiotic coating and penetration of corn kernels (E. coli growth on LB plates); assay type: cell-based, Escherichia coli; conditions: kernels soaked 1.5 hours in 2.5 or 0.25 mg/ml ciprofloxacin
[2] = tested on: Sitophilus primary endosymbiont (SPE, Candidatus Sodalis pierantonius); test: SPE levels in weevils by qPCR; assay type: in vivo, Sitophilus zeamais; conditions: for SPE amount, fold higher in water-treated than in treated weevils: F0 adults, 18 days
Description: (§1) Sitophilus maize weevils (Sitophilus zeamais) were reared on organic corn at 27.5° C. and 70% relative humidity. Prior to being used for weevil rearing, corn was frozen for 7 days and then tempered to 10% humidity with sterile water. […] Ciprofloxacin (Sigma) stock solutions were made at 25 mg/ml in 0.1 N HCl, sterilized by passing through a 0.22 μm syringe filter, and stored at −20° C. For treatments, the appropriate amount of stock solution was diluted in sterile water.
(§2) Weevil survival was monitored daily for 18 days, after which DNA was extracted from the remaining weevils in each group. Briefly, the weevil body was surface sterilized by dipping the weevil into a 6% bleach solution for approximately 5 seconds. Weevils were then rinsed in sterile water and DNA was extracted from each individual […] using a DNA extraction kit (Qiagen, DNeasy kit) according to manufacturer's instructions. […]; SEQ ID NO: 245). […]; SEQ ID NO: 247) (Login et al., 2011). qPCR was performed using a qPCR amplification ramp of 1.6 degrees C./s and the following conditions: 1) 95° C. for 10 minutes, 2) 95° C. for 15 seconds, 3) 57° C. for 30 seconds, 4) repeat steps 2-3 40×, 5) 95° C. for 15 seconds, 6) 55° C. for 1 minute, 7) ramp change to 0.15 degrees C./s, 8) 95° C. for 1 second. qPCR data was analyzed using analytic (Thermo Fisher Scientific, QuantStudio Design and Analysis) software.

[3] = tested on: Sitophilus zeamais weevils; test: Weevil survival; assay type: in vivo; conditions: adult mating pairs; 250 μg/ml or 2.5 mg/ml ciprofloxacin; 18 days
Description: as §1, §2

[4] = tested on: Sitophilus zeamais weevils; test: Weevil reproduction (emergence of F1 offspring); conditions: 2.5 mg/ml ciprofloxacin; till day 43
[5] = tested on: Acyrthosiphon pisum aphids; test: Aphid survival monitored daily; assay type: in vivo
Buchnera = test: Buchnera/aphid DNA copy number by qPCR; assay type: in vivo, Acyrthosiphon pisum
[6] = tested on: Acyrthosiphon pisum aphids; test: Aphid fecundity (offspring counts); assay type: in vivo; conditions: eNASCO, control approximately 7
Description: (§3) In addition, the developmental stage (1st, 2nd, 3rd, 4th, 5th instar) was determined daily throughout the experiment. Once an aphid reached the 4th instar stage, they were given their own artificial feeding system in a deep petri dish so that fecundity could be monitored once they reached adulthood.
For adult aphids, new nymphs were counted daily and then discarded. At the end of the experiments, fecundity was determined as the mean number of offspring produced daily once the aphid reached adulthood. Pictures of aphids were taken throughout the experiment to evaluate size differences between treatment groups.
as §3, with “5th, and 5R (5th that has reproduced)” for “5th”
For adult aphids, new nymphs were counted daily and then discarded. At the end of the experiments, fecundity was measured in two ways: 1) the mean day at which the first offspring for the treatment group was determined and 2) the mean number of offspring produced daily once the aphid reached adulthood. […]
In addition, the developmental stage (1st, 2nd, 3rd, 4th, 5th instar) was determined daily throughout the experiment. […]

[7] = LSR-1, through plants, artificial diet without essential amino acids + 100 μg/ml rifampicin

CC[C@H]1OC(=O)[C@H](C)[C@@H](O[C@H]2C[C@@](C)(OC)[C@@H](O)[C@H](C)O2)[C@H](C)[C@@H](O[C@@H]2O[C@H](C)C[C@H](N(C)C)[C@H]2O)[C@](C)(O)C[C@@H](C)CN(C)[C@H](C)[C@@H](O)[C@]1(C)O [azithromycin]
Asaia specific genes (16S rDNA relative to S7, qPCR) (Asaia): reduction of Asaia specific genes | survival rate of mosquitoes [1]: decreased compared to the control

O=C(O)c1cn(C2CC2)c2cc(N3CCNCC3)c(F)cc2c1=O [ciprofloxacin]
bacterial growth on plate with entire soaked corn kernel (E. coli DH5a): no bacteria grew | SPE amount, fold higher in water-treated than in treated weevils ([2]; 250 ug/ml ciprofloxacin): approximately 4 fold | SPE amount, fold higher in water-treated than in treated weevils ([2]; 2.5 mg/ml ciprofloxacin): ~8 fold | SPE levels, fold higher in water-treated than in treated F1 weevils ([2]; F1 weevils dissected from kernels, 2.5 mg/ml ciprofloxacin): approximately 4 fold | weevil survival [3]: all weevils remained alive | F1 offspring emerged [4]: much less offspring

Cc1cc2c(C(C)C)c(O)c(O)c(C=O)c2c(O)c1-c1c(C)cc2c(C(C)C)c(O)c(O)c(C=O)c2c1O [gossypol, gossypol acetic acid]
time after which aphids began dying ([5]; through plants, 0.5% gossypol): 2 days | Buchnera/aphid DNA copies, fold less than control (Buchnera; through plants, 0.25 and 0.5% gossypol, 5 or 13 days): ~4 fold

CC(=O)CCC(=O)O [levulinic acid]
survival of aphids ([5]; eNASCO, 0.3% levulinic acid, 11-day experiment): survival was significantly less | Buchnera/aphid DNA copies, fold less than control (Buchnera; eNASCO, 0.03 or 0.3% levulinic acid in water, 7 days): ~6 fold

CC(C)(CO)[C@@H](O)C(=O)NCCCO [pantothenol]
survival rate of aphids ([5]; eNASCO, leaf coating, 10 uM pantothenol, p=0.0019): lower survival rates than aphids placed on coated leaves with the control solution | survival rate of aphids ([5]; eNASCO, through plants, 10 or 100 uM pantothenol): negatively affected aphid fitness | mean number of offspring per day ([6]; 10 uM pantothenol): approximately 4 offspring/day | mean number of offspring per day ([6]; 100 uM pantothenol): ~5 offspring/day | Buchnera/aphid DNA copy number (Buchnera; eNASCO, 10 or 100 uM pantothenol, 8 days): does not affect Buchnera/aphid DNA copy number directly

CO[C@H]1/C=C/O[C@@]2(C)Oc3c(C)c(O)c4c(O)c(c(/C=N/N5CCN(C)CC5)c(O)c4c3C2=O)NC(=O)/C(C)=C\C=C\[C@H](C)[C@H](O)[C@@H](C)[C@@H](O)[C@@H](C)[C@H](OC(C)=O)[C@@H]1C [rifampicin]
time after which aphids began dying [5, 7]: 1 days | time by which all aphids succumbed to treatment [5, 7]: ≤ 9 days | Buchnera/aphid DNA copies, fold less than control (Buchnera; LSR-1, through plants, 100 μg/ml rifampicin, 7 days): ~4 fold

O=C/C=C/c1ccccc1 [trans-cinnemaldehyde]
survival rates of aphids ([5]; LSR-1, 0.05%, 0.5%, and 5% trans-cinnemaldehyde, vs water): significantly lower | Buchnera/aphid DNA copies, fold less than control (Buchnera; LSR-1, 0.5 and 5% trans-cinnemaldehyde, 3 days): ~870 fold
